# Legend:
# [1] = test system: human CD4+ T cells under Treg polarizing conditions; assay: Human Treg in vitro differentiation; assay type: cell-based; conditions: 6 days, 1 μM
# Protocol: (§1) Mouse CD4+ T cell in vitro Th1 differentiation
# (§2) Total CD4+ T cells were isolated from splenocytes of C57/BL6 mice (Chareles River Labrotory) using a CD4+ T cell isolation kit (Miltenyl Biotec, Auburn, CA), following the manufacturer’s instructions. Cells were resuspended in culture medium (described in Method section of Th17 differentiation) and were added to 96‐well plates at 2x10^5 per well. Titrated JNJ‐54271074 was added to each well at final DMSO concentration of 0.2%. Cells were incubated for 1 hour, after which Th1 cell differentiation medium was added with final concentrations of 1 µg/ml anti‐CD3, 5 µg/mL anti‐CD28 (BD Pharmingen, San Diego, CA), 10 µg/ml anti‐IL4, 10 ng/mL IL‐12, (R&D Systems, Minneapolis, MN). Cells were cultured at 37 °C and 5% CO2 for 3 days. Supernatants were collected and the accumulated cytokines in culture were measured by ELISA kits (R&D Systems, Minneapolis, MN) following manufacturers' instructions.
# IL‐23 induced IL‐17A and IL‐22 production in mouse splenocytes splenocytes were isolated from C57/BL6 mice and resuspended in medium and cultured in 96‐well plates at […] per 100 µL per well. […] Supernatants were collected and the accumulated cytokines in culture were measured by ELISA according to the manufacturer’s instructions (IL‐17A kit from R&D systems, and IL‐22 from Biolegend San Diego). […]
# human CCR6+ T cells = assay: Human CCR6+ cells under Th1 differentiation condition; assay type: cell-based; conditions: Th1 polarization conditions
# Protocol: as §1, §2
# IL‐23 induced IL‐17A and IL‐22 production in mouse splenocytes splenocytes were isolated from C57/BL6 mice and resuspended in medium and cultured in 96‐well plates at […] per 100 µL per well. Titrated JNJ‐54271074 in DMSO were added into each well and cells were incubated for 1 hour, then medium containing IL‐23 and IL‐2 (R&D systems) was added to each well at final concentration of 1 ng/mL and 10 U/ml, respectively. Cells were cultured at 37 °C and 5% CO2 for 4 days. Supernatants were collected and the accumulated cytokines in culture were measured by ELISA according to the manufacturer’s instructions (IL‐17A kit from R&D systems, and IL‐22 from Biolegend San Diego).
# Human CCR6+ cells in vitro culture without activation or under Th1 differentiation condition Human CCR6+ cells were isolated as described in Method. For experiment without activation, cells were cultured with recombinant IL‐7 (R&D) at final concentration of 10 ng/ml in the presence of 1 µM JNJ‐ 54271074 for 4 days before intracellular staining. […]
compound,measurement,setting,value
COc1nc2ccc([C@@](O)(c3ccc(C)nc3C)c3cnnn3C)cc2c(Cl)c1Cc1ccc(C(F)(F)F)cc1 [JNJ-54271074],mRNA expression of FOXP3,[1],slightly increased
same,percentage of FOXP3+ T cell,[1],no impact
same,accumulated IFNγ production,human CCR6+ T cells,minimal effect
same,IFNγ+ cells,human CCR6+ T cells; 1 μM,slightly increased
same,IL-17A+/IFNγ+ and IL-17A+ cells,human CCR6+ T cells; 1 μM,decreased
